Columns and labels:
[1] = molecular target: T1, human ABCB10 (Homo sapiens, UniProt Q9NRK6); conditions: 0.3 μM protein, 0-2000 μM ATP, 5 mM MgCl2, 37 °C, no added lipid
T1 sequence (Q9NRK6 152-738): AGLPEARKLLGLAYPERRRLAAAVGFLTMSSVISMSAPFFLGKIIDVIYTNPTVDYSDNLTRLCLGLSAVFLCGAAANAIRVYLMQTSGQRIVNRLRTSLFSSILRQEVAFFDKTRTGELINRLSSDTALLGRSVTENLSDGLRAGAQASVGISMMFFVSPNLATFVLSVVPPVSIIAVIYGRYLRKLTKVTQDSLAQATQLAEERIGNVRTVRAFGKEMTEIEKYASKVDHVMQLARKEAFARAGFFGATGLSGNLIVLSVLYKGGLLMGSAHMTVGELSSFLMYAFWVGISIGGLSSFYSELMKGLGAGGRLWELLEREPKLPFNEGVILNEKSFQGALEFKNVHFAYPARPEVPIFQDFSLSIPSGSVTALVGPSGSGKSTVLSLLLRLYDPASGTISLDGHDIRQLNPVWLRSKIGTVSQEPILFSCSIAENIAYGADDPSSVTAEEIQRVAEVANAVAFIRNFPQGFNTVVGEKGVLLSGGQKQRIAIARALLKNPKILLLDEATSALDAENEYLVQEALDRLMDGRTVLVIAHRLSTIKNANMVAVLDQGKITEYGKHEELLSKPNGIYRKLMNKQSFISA

[2] = molecular target: T1, human ABCB10; assay: ATPase activity, malachite green phosphate assay; format: biochemical

Compound	KM [1]	IC50 [2]
Nc1ncnc2c1ncn2[C@@H]1O[C@H](COP(=O)(O)OP(=O)(O)OP(=O)(O)O)[C@@H](O)[C@H]1O [ATP]	Michaelis–Menten equation was fitted to the initial rates to determine the Michaelis constant (KM)	
CCCCCCCC/C=C\CCCCCCCC(=O)OC[C@H](COP(=O)(O)OCC(O)COP(=O)(O)OC[C@@H](COC(=O)CCCCCCC/C=C\CCCCCCCC)OC(=O)CCCCCCC/C=C\CCCCCCCC)OC(=O)CCCCCCC/C=C\CCCCCCCC (some centres unmarked) [TOCDL, 1,1′,2,2′-tetraoleoyl-cardiolipin]		~10 µM
